Results as given in the NIST ThermoML archive (doi:10.1016/j.jct.2012.04.017).
± gives the expanded uncertainty stated by the source.

Conditions: 101.33 kPa, Liquid, Vibrating tube method

## CCCCCCCCCCn1cc[n+](C)c1.N#C[B-](C#N)(C#N)C#N [1-decyl-3-methyl-1H-imidazolium tetracyanoborate]
298.15 K
  mass density: 955.57 ± 0.12 kg/m3

## CCCCCCn1cc[n+](C)c1.N#C[B-](C#N)(C#N)C#N [1-hexyl-3-methylimidazolium tetracyanoborate]
298.15 K
  mass density: 983.03 ± 0.24 kg/m3

## CCCCO [butan-1-ol]
298.15 K
  mass density: 798.06 ± 0.15 kg/m3

## CCCCCCCCCCCCCC[P+](CCCCCC)(CCCCCC)CCCCCC.N#C[B-](C#N)(C#N)C#N [trihexyltetradecylphosphonium tetracyanoborate]
298.15 K
  mass density: 891.05 ± 0.23 kg/m3
308.15 K
  mass density: 884.97 ± 0.23 kg/m3
318.15 K
  mass density: 879.06 ± 0.23 kg/m3
328.15 K
  mass density: 873.16 ± 0.23 kg/m3
338.15 K
  mass density: 867.25 ± 0.24 kg/m3
348.15 K
  mass density: 861.36 ± 0.24 kg/m3
